Assay results reported in patent publication US6844354B1, “Agent for prophylaxis and treatment of interstitial pneumonia and pulmonary fibrosis” (Mitsubishi Pharma Corporation, priority 1999, dated 2005).
Marks after values point to notes of the source that are not given here. Blank lines part the entries; values can stand above or below the molecule they belong to.

Experiments:
[1] = tested on: bleomycin-induced interstitial pneumonia (pulmonary fibrosis) model; assay: Pulmonary fibrosis level by tissue staining (Aschcroft score) in bleomycin-induced model; format: in vivo, mouse; details: day 40
Method: (§1) Female C57BL/6 mice (about 15 g, 6-week-old) in 4 mice per group (n=4) were intraperitoneally administered with bleomycin 5 times a day every other day (total dose: 200 mg/kg) to prepare a model with bleomycin-induced interstitial pneumonia (pulmonary fibrosis).
(§2) Using the bleomycin-induced interstitial pneumonia (pulmonary fibrosis) model prepared in Experimental Example 1, the effect of the present invention on induced interstitial pneumonia (pulmonary fibrosis) was examined.
(§3) Y-27632 was intraperitoneally administered immediately before bleomycin administration from the first day of bleomycin administration (0th) to day 8 (5th administration), and thereafter until day 40, by way of a single, alternate-day administration. At day 40, the level of fibrosis was checked by hydroxyproline content and tissue staining. The hydroxyproline content was measured according to the report of Tran et al. (Tran et al., J. Clin. Invest., 99: 608-617, 1997). The degree of fibrosis by tissue staining was evaluated by the Aschcroft score (Aschcroft et al., J. Clin. Pathol., 41: 467-70, 1988).
Y-27632 suppressed the increase of Aschcroft score due to bleomycin administration at the dose of not less than 10 μg/kg (Table 2). In the Table, *:p<0.05, **:p<0.01.

mouse neutrophil = assay: Cell chemotaxis (Boyden chamber), mouse neutrophil; format: cell-based; details: 1.5 h, neutrophils, migration by IL-1. (5 ng/ml), 37° C. 90 min, n=6, mean±SEM, read-out: IC50 of suppression of migration
Method: (§4) Mouse alveolar macrophage-derived cell line (MH-S cell), fibroblast (NIH3T3 cell) and mouse neutrophil were used. Casein was intraperitoneally administered to the mouse and the mouse neutrophil was isolated from ascites thereof after 6 h. The cell chemotaxis was measured by a Boyden chamber (chemotaxicell, KURABO, Japan). The pore size of the filter used was 5 μm for MH-S cell and neutrophil, and 8 μm for NIH3T3 cell. As a chemotactic factor, lipopolysaccharide (LPS, E.coli: B-4, Sigma, St Louis, Mo., USA) was used for MH-S cell, mouse interleukin 1β (IL-1β, Genzyme/techne, USA) was used for neutrophil, and a […] (PDGF-BB, UBI, Lake Placid, USA) was used for NIH3T3 cell. The chemotactic factors were added to a lower layer and Y-27632 were added to a higher layer at various concentrations. The reaction was carried out at 37° C. for 120 min for MH-S cell and NIH3T3 cell and 37° C. for 90 min for neutrophil. After the completion of the reaction, migrated cells were stained with Giemsa (Muto, CO., Ltd, Japan) and the cells were counted. The value is in mean±SEM.

[2] = tested on: bleomycin-induced interstitial pneumonia (pulmonary fibrosis) model; assay: Number of inflammatory cells in bronchoalveolar lavage fluid (BALF) in bleomycin-induced model; format: in vivo, mouse
Method: as §1
Using the pulmonary fibrosis model administered with bleomycin as in Experimental Example 1, the effect of Y-27632 on the number of various inflammatory cells in BALF was examined.
The dose of Y-27632 was administered every other day at the lo dose of 100 μg/kg in the same manner as in Experimental Example 2. BALF was recovered at day 7, day 14, day 21 and day 40 from the start of the bleomycin administration, and the number of total cells, macrophages, lymphocytes and neutrophils was counted (n=5). The number of total cells was measured by a hemocytometer. Smear preparations of the various cells in BALF were prepared by cytospin (Auto Smer CF-12D, Chiyoda seisakusho, Tokyo, Japan), stained with May-Gruenwald and subjected to the counting under a microscope.
The results are shown in mean±SEM (n=5). For the test, (Satical analysis was performed One-way ANOVA test followed by Fisher's least significance test) was performed (*p<0.05; BLM group vs Y-27632 group) (§p<0.05; BLM group vs Normal group) (+p<0.05; Y-27632 group vs Normal group).

[3] = tested on: Mouse alveolar macrophage-derived cell line (MH-S cell); assay: Cell chemotaxis (Boyden chamber), MH-S cell; format: cell-based; details: 2 h, MH-S cells, migration by LPS (1 μg/ml), 37° C. 120 min, n=6, mean±SEM, read-out: IC50 of suppression of migration
Method: as §4

fibroblast (NIH3T3 cell) = assay: Cell chemotaxis (Boyden chamber), NIH3T3 cell; format: cell-based; details: Mus musculus, 2 h; NIH3T3 cells, migration by PDGF-BB (10 ng/ml), 37° C. 120 min, n=6, mean±SEM; read-out: IC50 of suppression of migration
Method: as §4

[4] = tested on: bleomycin-induced interstitial pneumonia (pulmonary fibrosis) model; assay: Hydroxyproline content in bleomycin-induced interstitial pneumonia (pulmonary fibrosis) model; format: in vivo, mouse; details: day 40
Method: as §1, §2, §3
The suppression percentage was calculated based on the bleomycin alone administration group as 0% suppression, and the physiological saline administration group as 100% suppression.

ROCK-II gene = assay: Expression of ROCK-II gene in the lung, real time quantitative RT-PCR; format: in vivo, mouse
Method: as §1
The expression of ROCK-II gene in the lung at 7, 14, 21 and 40 days after the start of the bleomycin administration was measured, and so was the value of an animal free of bleomycin administration. The amount of the expression of the ROCK-II gene was measured according to a real time quantitative RT-PCR method. As the primer, the following sequence was used [forward: CATGGTGCATTGCGACACA (SEQ ID No. 1), reverse: […] (SEQ ID No. 2)]. The amount of expression of the ROCK-II gene was expressed relatively in [(Rock-II m RNA)/(GAPDH m RNA)] using the expression amount of GAPDH (glyceraldehyde-3-phosphate dehydrogenase) gene as a standard. The results are shown in mean±SEM (n=4). For the test, (Satical analysis was performed One-way ANOVA test followed by Fisher's least significance test) was performed.

[5] = Y-27632 alone 1000 μg/kg (no bleomycin)
[6] = Y-27632 100 μg/kg every other day vs BLM group, days 7-40

IC50 (mouse neutrophil): 8.4 ± 2.1 µM
IC50 [3]: 4.8 ± 2 µM
Molecule: C[C@@H](N)[C@H]1CC[C@H](C(=O)Nc2ccncc2)CC1 [Y-27632, (+)-trans-4-(1-aminoethyl)-1-(4-pyridylcarbamoyl)cyclohexane 2HCl.1H2O]
Aschcroft score (mean ± standard error) [1, 5]: 1.33 ± 0.21
Aschcroft score (mean ± standard error) ([1]; bleomycin + Y-27632 0.1 μg/kg): 2.79 ± 0.26
Aschcroft score (mean ± standard error) ([1]; bleomycin + Y-27632 10 μg/kg, p<0.01): 1.85 ± 0.26**
Aschcroft score (mean ± standard error) ([1]; bleomycin + Y-27632 100 μg/kg, p<0.05): 1.98 ± 0.41*
Dose suppressing the increase of Aschcroft score due to bleomycin administration [1]: not less than 10 μg/kg
Number of macrophages in BALF [2, 6]: significantly lower results than BLM group
Number of neutrophils in BALF [2, 6]: significantly lower results than BLM group
Number of total cells in BALF [2, 6]: significantly lower results than BLM group
Lymphocyte counts in BALF ([2]; Y-27632 100 μg/kg every other day, BLM, Y-27632 and Normal groups): did not show a significant difference among 3 groups
IC50 (fibroblast (NIH3T3 cell)): 1.6 ± 0.5 µM
Suppression (%) of the increase of hydroxyproline content [4, 5]: 92.1%
Suppression (%) of the increase of hydroxyproline content ([4]; bleomycin + Y-27632 0.01 μg/kg i.p. alternate-day): −10.6%
Suppression (%) of the increase of hydroxyproline content ([4]; bleomycin + Y-27632 0.1 μg/kg i.p. alternate-day): 28.2%
Suppression (%) of the increase of hydroxyproline content ([4]; bleomycin + Y-27632 1 μg/kg i.p. alternate-day): 30.0%
Suppression (%) of the increase of hydroxyproline content ([4]; bleomycin + Y-27632 10 μg/kg i.p. alternate-day): 38.6%
Suppression (%) of the increase of hydroxyproline content ([4]; bleomycin + Y-27632 100 μg/kg i.p. alternate-day): 53.8%
Effect on the increase of hydroxyproline content due to bleomycin administration ([4]; i.p. alternate-day): dose-dependently suppressed

Molecule: bleomycin
Aschcroft score (mean ± standard error) ([1]; bleomycin alone (total dose 200 mg/kg i.p.)): 3.54 ± 0.43
Expression amount of ROCK-II gene (ROCK-II mRNA/GAPDH mRNA) vs bleomycin non-administration group (ROCK-II gene; day 7 and day 21, bleomycin total dose 200 mg/kg i.p.): significantly high
Increase of expression amount of ROCK-II gene relative to bleomycin non-administration group (ROCK-II gene; day 21, bleomycin total dose 200 mg/kg i.p.): about 9 times
